Results taken from patent publication US20090298820A1, “3-SUBSTITUTED-1H-PYRROLO[2,3-B]PYRIDINE AND 3-SUBSTITUTED-1H-PYRROLO[3,2-B]PYRIDINE COMPOUNDS, THEIR USE AS MTOR KINASE AND PI3 KINASE INHIBITORS, AND THEIR SYNTHESES” (Wyeth, priority 2008, published 2009).

Legend:
PI3Kα = PI3Kα (Homo sapiens, UniProt P42336); assay: PI3K-alpha fluorescence polarization assay; assay type: biochemical; settings: read-out: PI3Kα Median IC50
PI3Kγ = PI3Kγ (Homo sapiens, UniProt P48736); assay: PI3K-gamma fluorescence polarization assay; assay type: biochemical; settings: read-out: PI3Kγ Median IC50
PI3Kγ, sequence (P48736 whole entry, species assumed): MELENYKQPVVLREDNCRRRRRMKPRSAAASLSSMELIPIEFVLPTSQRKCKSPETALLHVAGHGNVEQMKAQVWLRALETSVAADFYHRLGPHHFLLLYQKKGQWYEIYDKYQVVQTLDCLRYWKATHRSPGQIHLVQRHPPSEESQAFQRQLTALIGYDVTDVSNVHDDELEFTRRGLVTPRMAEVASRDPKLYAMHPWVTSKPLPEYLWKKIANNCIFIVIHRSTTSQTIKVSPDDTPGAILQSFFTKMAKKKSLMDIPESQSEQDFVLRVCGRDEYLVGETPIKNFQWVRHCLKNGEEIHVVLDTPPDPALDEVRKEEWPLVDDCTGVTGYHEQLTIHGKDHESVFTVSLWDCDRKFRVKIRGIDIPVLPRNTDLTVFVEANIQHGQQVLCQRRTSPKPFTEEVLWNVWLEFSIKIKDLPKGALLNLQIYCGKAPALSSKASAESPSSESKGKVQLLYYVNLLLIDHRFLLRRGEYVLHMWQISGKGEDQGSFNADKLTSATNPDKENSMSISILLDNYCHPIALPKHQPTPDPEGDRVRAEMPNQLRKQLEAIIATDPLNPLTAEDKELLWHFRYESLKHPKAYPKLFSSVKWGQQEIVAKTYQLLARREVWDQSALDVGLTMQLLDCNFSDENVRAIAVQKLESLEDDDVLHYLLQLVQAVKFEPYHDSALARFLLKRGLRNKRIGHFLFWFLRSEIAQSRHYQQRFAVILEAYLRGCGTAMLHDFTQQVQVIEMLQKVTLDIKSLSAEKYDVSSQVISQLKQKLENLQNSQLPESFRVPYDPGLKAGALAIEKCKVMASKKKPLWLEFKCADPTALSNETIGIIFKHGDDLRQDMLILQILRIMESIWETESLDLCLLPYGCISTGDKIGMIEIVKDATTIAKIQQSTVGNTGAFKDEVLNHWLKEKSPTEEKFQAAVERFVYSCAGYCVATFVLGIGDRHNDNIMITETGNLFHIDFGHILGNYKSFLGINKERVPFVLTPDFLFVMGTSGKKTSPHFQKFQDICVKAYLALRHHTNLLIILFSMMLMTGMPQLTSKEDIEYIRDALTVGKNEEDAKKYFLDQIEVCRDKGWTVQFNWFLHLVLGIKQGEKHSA

mTOR = mTOR (Homo sapiens, UniProt P42345); assay: mTOR enzyme assay (DELFIA format, His6-S6K substrate); assay type: biochemical; settings: read-out: mTOR Kinase Median IC50

PI3Kα, sequence (P42336 whole entry, species assumed): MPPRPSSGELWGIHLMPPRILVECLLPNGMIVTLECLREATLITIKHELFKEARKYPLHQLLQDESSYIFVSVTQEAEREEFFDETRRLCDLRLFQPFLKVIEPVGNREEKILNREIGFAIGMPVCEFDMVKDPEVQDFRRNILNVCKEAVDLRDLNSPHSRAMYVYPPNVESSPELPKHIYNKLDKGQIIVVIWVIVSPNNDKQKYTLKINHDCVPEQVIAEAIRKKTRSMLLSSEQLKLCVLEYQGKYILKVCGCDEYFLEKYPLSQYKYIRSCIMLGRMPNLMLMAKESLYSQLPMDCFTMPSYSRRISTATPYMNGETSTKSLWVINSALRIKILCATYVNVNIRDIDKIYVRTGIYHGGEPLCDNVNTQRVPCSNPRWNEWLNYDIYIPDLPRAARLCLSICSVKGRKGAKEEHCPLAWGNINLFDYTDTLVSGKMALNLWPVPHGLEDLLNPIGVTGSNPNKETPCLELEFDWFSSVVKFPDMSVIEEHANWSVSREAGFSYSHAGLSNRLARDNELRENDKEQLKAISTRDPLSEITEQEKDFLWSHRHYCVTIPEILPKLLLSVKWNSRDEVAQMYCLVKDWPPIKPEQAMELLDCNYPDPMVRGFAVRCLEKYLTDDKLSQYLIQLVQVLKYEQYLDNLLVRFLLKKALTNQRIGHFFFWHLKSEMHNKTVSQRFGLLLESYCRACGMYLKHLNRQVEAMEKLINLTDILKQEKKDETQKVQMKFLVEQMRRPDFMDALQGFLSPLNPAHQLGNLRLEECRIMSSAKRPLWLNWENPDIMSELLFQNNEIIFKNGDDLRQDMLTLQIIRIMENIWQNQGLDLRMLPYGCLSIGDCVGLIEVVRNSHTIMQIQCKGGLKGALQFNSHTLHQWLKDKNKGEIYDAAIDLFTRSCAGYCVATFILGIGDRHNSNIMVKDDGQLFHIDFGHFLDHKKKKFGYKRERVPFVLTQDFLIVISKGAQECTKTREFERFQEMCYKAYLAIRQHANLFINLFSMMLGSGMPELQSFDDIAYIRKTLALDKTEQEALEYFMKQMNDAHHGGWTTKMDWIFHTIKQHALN
PI3Kα, sequence (P27986 whole entry partner, species assumed): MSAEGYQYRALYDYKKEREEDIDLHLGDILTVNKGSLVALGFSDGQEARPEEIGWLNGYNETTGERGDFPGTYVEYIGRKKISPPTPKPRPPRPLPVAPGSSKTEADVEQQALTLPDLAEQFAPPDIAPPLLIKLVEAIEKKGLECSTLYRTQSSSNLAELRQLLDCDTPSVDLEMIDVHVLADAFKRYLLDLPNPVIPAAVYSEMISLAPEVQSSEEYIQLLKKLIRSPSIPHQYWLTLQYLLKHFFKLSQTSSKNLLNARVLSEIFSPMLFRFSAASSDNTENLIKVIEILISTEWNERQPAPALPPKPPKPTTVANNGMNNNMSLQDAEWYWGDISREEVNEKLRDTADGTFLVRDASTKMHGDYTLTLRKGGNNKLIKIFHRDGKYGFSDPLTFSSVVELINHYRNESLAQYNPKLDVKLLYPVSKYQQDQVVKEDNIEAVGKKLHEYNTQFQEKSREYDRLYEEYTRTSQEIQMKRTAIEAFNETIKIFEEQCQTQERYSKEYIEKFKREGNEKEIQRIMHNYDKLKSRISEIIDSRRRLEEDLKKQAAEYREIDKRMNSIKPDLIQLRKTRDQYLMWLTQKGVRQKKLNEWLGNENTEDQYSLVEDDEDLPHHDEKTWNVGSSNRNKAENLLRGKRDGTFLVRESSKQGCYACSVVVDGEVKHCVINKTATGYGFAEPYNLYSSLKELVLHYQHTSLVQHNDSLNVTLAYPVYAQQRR

Row | SMILES | IC50 (PI3Kα) | IC50 (PI3Kγ) | IC50 (mTOR) | melting point
1 | CNC(=O)Nc1ccc2c(c1)C(=O)/C(=C/c1cn(C)c3nccc(N4CCC(C(=O)N5CCOCC5)CC4)c13)O2 [Compound 174, 1-methyl-3-[(2Z)-2-({1-methyl-4-[4-(morpholin-4-ylcarbonyl)piperidin-1-yl]-1H-pyrrolo[2,3-b]pyridin-3-yl}methylidene)-3-oxo-2,3-dihydro-1-benzofuran-5-yl]urea] | 0.337 µM | 0.337 µM | 0.0165 µM | 235 to 240 °C
2 | Cn1cc(/C=C2\Oc3ccc(C(=O)O)cc3C2=O)c2c(-c3ccccc3)ccnc21 [Compound 176, (2Z)-2-[(1-methyl-4-phenyl-1H-pyrrolo[2,3-b]pyridin-3-yl)methylidene]-3-oxo-2,3-dihydro-1-benzofuran-5-carboxylic acid] | > 10 µM | > 10 µM | 0.445 µM | 329 to 342 °C
3 | CN(C)CCNC(=O)c1ccc2c(c1)C(=O)/C(=C/c1cn(C)c3nccc(-c4ccccc4)c13)O2 [Compound 187, (2Z)-N-[2-(dimethylamino)ethyl]-2-[(1-methyl-4-phenyl-1H-pyrrolo[2,3-b]pyridin-3-yl)methylidene]-3-oxo-2,3-dihydro-1-benzofuran-5-carboxamide] | 0.034 µM | 0.099 µM | 0.195 µM | 255 to 256 °C
4 | CN1CCN(C(=O)Nc2ccc3c(c2)C(=O)/C(=C/c2cn(C)c4nccc(-c5ccccc5)c24)O3)CC1 [Compound 188, 4-methyl-N-{(2Z)-2-[(1-methyl-4-phenyl-1H-pyrrolo[2,3-b]pyridin-3-yl)methylidene]-3-oxo-2,3-dihydro-1-benzofuran-5-yl}piperazine-1-carboxamide] | > 10 µM | > 10 µM | 2.45 µM | 211 to 213 °C
5 | CN(C)C(=O)C1CCN(c2ccnc3c2c(/C=C2\Oc4ccc(NC(=O)Nc5cccnc5)cc4C2=O)cn3C)CC1 [Compound 189, N,N-dimethyl-1-{1-methyl-3-[(Z)-{3-oxo-5-[(pyridin-3-ylcarbamoyl)amino]-1-benzofuran-2(3H)-ylidene}methyl]-1H-pyrrolo[2,3-b]pyridin-4-yl}piperidine-4-carboxamide] | 2.03 µM | 2.04 µM | 0.0105 µM | 165 to 175 °C (dec.)
6 | CN(C)CCNC(=O)Nc1ccc2c(c1)C(=O)/C(=C/c1cn(C)c3nccc(N4CC5CCC(C4)O5)c13)O2 [Compound 193, 1-[2-(dimethylamino)ethyl]-3-[(2Z)-2-{[1-methyl-4-(8-oxa-3-azabicyclo[3.2.1]oct-3-yl)-1H-pyrrolo[2,3-b]pyridin-3-yl]methylidene}-3-oxo-2,3-dihydro-1-benzofuran-5-yl]urea] | 0.024 µM | 0.045 µM | 0.0056 µM | 175 to 180 °C
7 | CN1CCN(CCNC(=O)Nc2ccc3c(c2)C(=O)/C(=C/c2cn(C)c4nccc(N5CC6CCC(C5)O6)c24)O3)CC1 [Compound 194, 1-[(2Z)-2-{[1-methyl-4-(8-oxa-3-azabicyclo[3.2.1]oct-3-yl)-1H-pyrrolo[2,3-b]pyridin-3-yl]methylidene}-3-oxo-2,3-dihydro-1-benzofuran-5-yl]-3-[2-(4-methylpiperazin-1-yl)ethyl]urea] | 0.237 µM | 0.472 µM | 0.034 µM | 170 to 172 °C
8 | Cn1cc(/C=C2\Oc3ccc(C(=O)O)cc3C2=O)c2c(N3CC4CCC(C3)O4)ccnc21 [Compound 197, (2Z)-2-{[1-methyl-4-(8-oxa-3-azabicyclo[3.2.1]oct-3-yl)-1H-pyrrolo[2,3-b]pyridin-3-yl]methylidene}-3-oxo-2,3-dihydro-1-benzofuran-5-carboxylic acid] | 2.37 µM | 3 µM | 0.13 µM | 285 to 289 °C
9 | Cn1cc(/C=C2\Oc3ccc(NC(=O)Nc4ccncc4)cc3C2=O)c2c(N3CC4CCC(C3)O4)ccnc21 [Compound 198, 1-[(2Z)-2-{[1-methyl-4-(8-oxa-3-azabicyclo[3.2.1]oct-3-yl)-1H-pyrrolo[2,3-b]pyridin-3-yl]methylidene}-3-oxo-2,3-dihydro-1-benzofuran-5-yl]-3-pyridin-4-ylurea] | 0.293 µM | 0.249 µM | 0.0195 µM | 257 to 259 °C

The remaining lines, values ahead:

Row | IC50 (PI3Kα) | IC50 (PI3Kγ) | IC50 (mTOR) | melting point | SMILES
10 | 1.06 µM | 2.18 µM | 0.105 µM | 234 to 241 °C | Cn1cc(/C=C2\Oc3ccc(NC(=O)NCCCCl)cc3C2=O)c2c(N3CC4CCC(C3)O4)ccnc21 [Compound 240, 1-(3-chloropropyl)-3-[(2Z)-2-{[1-methyl-4-(8-oxa-3-azabicyclo[3.2.1]oct-3-yl)-1H-pyrrolo[2,3-b]pyridin-3-yl]methylene}-3-oxo-2,3-dihydro-1-benzofuran-5-yl]urea]
11 | 0.053 µM | 0.034 µM | 0.0105 µM | 261 to 263 °C | CN(C)CCCNC(=O)Nc1ccc2c(c1)C(=O)/C(=C/c1cn(C)c3nccc(N4CC5CCC(C4)O5)c13)O2 [Compound 241, 1-[3-(dimethylamino)propyl]-3-[(2Z)-2-{[1-methyl-4-(8-oxa-3-azabicyclo[3.2.1]oct-3-yl)-1H-pyrrolo[2,3-b]pyridin-3-yl]methylene}-3-oxo-2,3-dihydro-1-benzofuran-5-yl]urea]
12 | 0.243 µM | 0.781 µM | 0.0645 µM | 158 to 163 °C | COCCN(C)CCCNC(=O)Nc1ccc2c(c1)C(=O)/C(=C/c1cn(C)c3nccc(N4CC5CCC(C4)O5)c13)O2 [Compound 242, 1-{3-[(2-methoxyethyl)(methyl)amino]propyl}-3-[(2Z)-2-{[1-methyl-4-(8-oxa-3-azabicyclo[3.2.1]oct-3-yl)-1H-pyrrolo[2,3-b]pyridin-3-yl]methylene}-3-oxo-2,3-dihydro-1-benzofuran-5-yl]urea]
13 | 1.43 µM | 1.54 µM | 0.0305 µM | 282 to 285 °C | COCCN(C)C(=O)C1CCN(c2ccnc3c2c(/C=C2\Oc4ccc(NC(=O)Nc5cccnc5)cc4C2=O)cn3C)CC1 [Compound 246, N-(2-methoxyethyl)-N-methyl-1-{1-methyl-3-[(Z)-{3-oxo-5-[(pyridin-3-ylcarbamoyl)amino]-1-benzofuran-2(3H)-ylidene}methyl]-1H-pyrrolo[2,3-b]pyridin-4-yl}piperidine-4-carboxamide]
14 | 1.68 µM | 2.82 µM | 0.017 µM | 260 to 265 °C | Cn1cc(/C=C2\Oc3ccc(NC(=O)Nc4cccnc4)cc3C2=O)c2c(N3CCC(C(=O)N4CC5CCC(C4)O5)CC3)ccnc21 [Compound 250, 1-[(2Z)-2-({1-methyl-4-[4-(8-oxa-3-azabicyclo[3.2.1]oct-3-ylcarbonyl)piperidin-1-yl]-1H-pyrrolo[2,3-b]pyridin-3-yl}methylene)-3-oxo-2,3-dihydro-1-benzofuran-5-yl]-3-pyridin-3-ylurea]
15 | 4.05 µM | 5.58 µM | 0.016 µM | 206 to 210 °C | COCCN(CCOC)C(=O)C1CCN(c2ccnc3c2c(/C=C2\Oc4ccc(NC(=O)Nc5cccnc5)cc4C2=O)cn3C)CC1 [Compound 251, N,N-bis(2-methoxyethyl)-1-{1-methyl-3-[(Z)-{3-oxo-5-[(pyridin-3-ylcarbamoyl)amino]-1-benzofuran-2(3H)-ylidene}methyl]-1H-pyrrolo[2,3-b]pyridin-4-yl}piperidine-4-carboxamide]
16 | 1.23 µM | 2.41 µM | 0.0093 µM | 125 to 135 °C | CN(Cc1ccncc1)C(=O)C1CCN(c2ccnc3c2c(/C=C2\Oc4ccc(NC(=O)Nc5cccnc5)cc4C2=O)cn3C)CC1 [Compound 255, N-methyl-1-{1-methyl-3-[(Z)-{3-oxo-5-[(pyridin-3-ylcarbamoyl)amino]-1-benzofuran-2(3H)-ylidene}methyl]-1H-pyrrolo[2,3-b]pyridin-4-yl}-N-(pyridin-4-ylmethyl)piperidine-4-carboxamide]
17 | 1.02 µM | 1.61 µM | 0.0109 µM | 195 to 205 °C | CN(Cc1cccnc1)C(=O)C1CCN(c2ccnc3c2c(/C=C2\Oc4ccc(NC(=O)Nc5cccnc5)cc4C2=O)cn3C)CC1 [Compound 256, N-methyl-1-{1-methyl-3-[(Z)-{3-oxo-5-[(pyridin-3-ylcarbamoyl)amino]-1-benzofuran-2(3H)-ylidene}methyl]-1H-pyrrolo[2,3-b]pyridin-4-yl}-N-(pyridin-3-ylmethyl)piperidine-4-carboxamide]
18 | 1.57 µM | 1.4 µM | 0.0084 µM | 187 to 189 °C | CN(Cc1ccccn1)C(=O)C1CCN(c2ccnc3c2c(/C=C2\Oc4ccc(NC(=O)Nc5cccnc5)cc4C2=O)cn3C)CC1 [Compound 257, N-methyl-1-{1-methyl-3-[(Z)-{3-oxo-5-[(pyridin-3-ylcarbamoyl)amino]-1-benzofuran-2(3H)-ylidene}methyl]-1H-pyrrolo[2,3-b]pyridin-4-yl}-N-(pyridin-2-ylmethyl)piperidine-4-carboxamide]
19 | 2.89 µM | 10.5 µM | 0.0145 µM | 180 to 190 °C (dec.) | Cn1cc(/C=C2\Oc3ccc(NC(=O)Nc4cccnc4)cc3C2=O)c2c(N3CCC(C(=O)Nc4cccnc4)CC3)ccnc21 [Compound 262, 1-{1-methyl-3-[(Z)-{3-oxo-5-[(pyridin-3-ylcarbamoyl)amino]-1-benzofuran-2(3H)-ylidene}methyl]-1H-pyrrolo[2,3-b]pyridin-4-yl}-N-pyridin-3-ylpiperidine-4-carboxamide]
20 | 15.5 µM | 8.21 µM | 0.025 µM | 230 to 235 °C (dec.) | Cn1cc(/C=C2\Oc3ccc(NC(=O)Nc4cccnc4)cc3C2=O)c2c(N3CCC(C(=O)Nc4ccncc4)CC3)ccnc21 [Compound 263, 1-{1-methyl-3-[(Z)-{3-oxo-5-[(pyridin-3-ylcarbamoyl)amino]-1-benzofuran-2(3H)-ylidene}methyl]-1H-pyrrolo[2,3-b]pyridin-4-yl}-N-pyridin-4-ylpiperidine-4-carboxamide]
